Laboratory results: patent US20050288347A1, “Certain triazole-based compounds, compositions, and uses thereof” (priority 2004, published 2005)
“Also recorded” adds a separate entry of the source. Like-named read-outs stand apart in the source and are kept apart here.

Target: protein kinase
Experiment: HTS ATP-utilizing enzyme assay, off-chip mobility-shift format (Caliper HTS 250)
Type: biochemical, human
Details: for Kinase: kinase(s) for which the compound exhibits protein kinase inhibitory activity, active = greater than three-sigma from the mean activity of inactive compounds
Description: The following procedures describe the reagent and plate preparation for a HTS of an ATP-utilizing enzyme, such as a protein kinase, run in an off-chip mobility-shift assay format. The following provides an HTS protocol for running a protein kinase HTS screen on a Caliper HTS 250 microfluidics system. The following parameters are dependent on the protein kinase used and can be determined by one skilled in the art as part of a typical assay development process. For example, the peptide substrate used can be identified from the current literature, by screening a peptide library of potential protein kinase substrates, or by other applicable means accepted in the field.
The following table provides typical screen assay parameters appropriate for a Caliper HTS 250 microfluidics system.
The reagents and buffers listed in the following table are generally applicable for developing and running an HTS screen on a human protein kinase using the Caliper HTS 250 system.
The following reagents were prepared using the previously described buffers.
A 2× Master Buffer solution was prepared by combining 200 mL of 1 M HEPES, pH 7.5, 2 mL of 10% Triton X-100, 20 mL of 10% BSA, and 778 mL of H2O.
Assays to determine the kinase inhibitory activity of chemical entities of the present disclosure were performed using a Caliper HTS 250 microfluidics device, Greiner U-bottom assay plates, a Multidrop for transfer of reagents, and Biomek FX (AMNCBM03) software. Initially, 2.4 μL of a 1 mM solution of a test compound in 100% DMSO was added to a well of the Greiner U-bottom plate. A single Greiner U-bottom plate having 24×16 wells could include multiple test compounds. […] Using the Biomek FX, 10 μL of 0.5 M EDTA was added by the span-8 to wells, indicated as 100% Control and 2.4 μL of 100% DMSO was added by the span-8 to wells, indicated as 0% Control. […] The total reaction volume in each well was 25 μL, and the concentration of the test compound was 10 μM. The assay plate was incubated for 2.5 hrs at 20° C. to 22° C. […] The inhibition of the ATP-utilizing enzyme, such as a particular protein kinase, was determined by measuring the ratio of the peptide substrate to phosphorylated product for each well of the assay plate using the Caliper HTS 250 system.
The use of three-sigma statistical limits represents a conservative method for declaring potential hits among targets. The three-sigma activity, as well as the mean population activity, can be different for each target enzyme.

[1] = test compound 10 μM, active = activity greater than three-sigma from the mean of the predominately inactive population for that enzyme

| SMILES | Kinase (test compound 10 μM) | protein kinase against which the compound exhibits inhibitory activity (Table 3) [1] | also measured |
| --- | --- | --- | --- |
| COc1ccc(NCc2nnc(SCC(=O)O)n2-c2ccc(C)cc2)cc1 | FYN |  |  |
| COc1ccc(OC)c(C(=O)CSc2nnc(-c3ccccc3N)n2C)c1 | PDGFRR-α |  |  |
| COC(=O)c1ccc(CSc2nnc(C)[nH]2)cc1 [methyl 4-((5-methyl-4H-1,2,4-triazol-3-ylthio)methyl)benzoate] |  | DYRK2; also recorded: AURORA-A |  |
| COc1ccccc1-n1c(SCC2COc3ccccc3O2)nnc1-c1cccc(Cl)c1 (centres unmarked) |  |  | protein kinase against which the compound exhibits inhibitory activity (Table 3): MAPKAPK-3 |
| Cc1ccc(-n2c(SCC(=O)O)nnc2-c2ccc([N+](=O)[O-])cc2)cc1 [2-(5-(4-nitrophenyl)-4-p-tolyl-4H-1,2,4-triazol-3-ylthio)acetic acid] | DAPK1 |  |  |
| NC(=O)CSc1nnc(COc2cccc3cccnc23)n1-c1ccccc1 | MAPKAPK-2 |  |  |
| Cc1ccc(-n2c(C)nnc2SCc2nnc(S)n2-c2ccccc2)cc1 | PDGFRR-α |  |  |
| O=C(CSc1nnc(-c2cccnc2)[nH]1)c1ccccc1 [1-phenyl-2-(5-(pyridin-3-yl)-4H-1,2,4-triazol-3-ylthio)ethanone] | AURORA-A |  |  |
| CCn1c(COc2ccccc2OC)nnc1SCc1ccc(Cl)cc1 |  | CDK2-cyclinE |  |
| COc1ccc(OCc2nnc(SCC(=O)O)n2-c2ccc(C)cc2)cc1 | AURORA-A |  |  |
| Cn1c(CNc2ccc(F)cc2)nnc1SCC(=O)Nc1ccc([N+](=O)[O-])cc1 | CHEK2 |  |  |
| O=C(CSc1nnc(-c2ccc(O)cc2)n1-c1cccc(Cl)c1)Nc1ccccc1 | GSK3-α |  |  |
| CCOC(=O)c1c(NC(=O)CSc2nnc(-c3ccccc3O)n2-c2ccc(C)cc2)sc(C(C)=O)c1C | LCK |  |  |
| CCn1c(CSc2nc(C)cc(C)n2)nnc1SCC(=O)Nc1nccs1 | GSK3-α |  |  |
| Cc1ccc(NCc2nnc(S)n2-c2cccc(Cl)c2)cc1 [5-((p-toluidino)methyl)-4-(3-chlorophenyl)-4H-1,2,4-triazole-3-thiol] | CDK2-cyclinA; also recorded: GSK3-α |  |  |
| COc1ccc(-c2nnc(SCC(=O)OCc3ccccc3)n2-c2ccc(OC)cc2)cc1 [benzyl 2-(4,5-bis(4-methoxyphenyl)-4H-1,2,4-triazol-3-ylthio)acetate] | AKT1 |  |  |
| O=C(CSc1nnc(-c2cccc(C(F)(F)F)c2)[nH]1)c1ccc2c(c1)OCCO2 | AURORA-A; also recorded: GSK3-α; also recorded: FLT-3 |  |  |
| O=C(O)c1ccc(-n2c(S)nnc2-c2cc(C3CC3)n[nH]2)cc1 | GSK3-α |  |  |
| CCOC(=O)c1ccc(CSc2nnc(-c3ccc([N+](=O)[O-])cc3)[nH]2)o1 |  | AURORA-A |  |
| COc1ccc(-n2c(CNc3ccc(C)cc3)nnc2SCC(=O)O)cc1 | PDGFRR-α |  |  |
| Cc1cc(C)nc(SCc2nnc(SCC(=O)Nc3ccccc3)n2-c2ccccc2)n1 | MAPKAPK-2 |  |  |
| Cc1nnc(SCc2cccc(I)c2)[nH]1 [3-(3-iodobenzylthio)-5-methyl-4H-1,2,4-triazole] |  | AURORA-A; also recorded: GSK3-α; also recorded: DYRK2 |  |
| CCn1c(SCC(=O)N2CCCC(C)C2)nnc1-c1ccc(S(=O)(=O)N2CCN(C)CC2)cc1 (centres unmarked) | FYN |  |  |
| COc1ccc(-n2c(S)nnc2CNc2cccc(C(F)(F)F)c2)cc1 | GSK3-α; also recorded: GSK3-β |  |  |
| CCOc1ccc(NCc2nnc(SCC(=O)O)n2-c2ccc(C)cc2)cc1 | FYN |  |  |

| SMILES | Kinase (test compound 10 μM) | protein kinase against which the compound exhibits inhibitory activity (Table 3) [1] | also measured |
| --- | --- | --- | --- |
| Cc1cc(C)nc(SCc2nnc(SCC(=O)NNC(=O)c3ccccc3O)n2C)n1 |  | FYN and SRC and FLT-3 |  |
| COc1ccccc1-n1c(SCCC(=O)O)nnc1-c1cccnc1 |  | AURORA-A |  |
| Cc1ccc(-c2nnc(SC(C)C(=O)O)n2-c2ccc(C)cc2)cc1 (centres unmarked) [2-(4,5-dip-tolyl-4H-1,2,4-triazol-3-ylthio)propanoic acid] | DAPK1 |  |  |
| Cc1cccc(OCc2nnc(SCC(=O)N3c4ccccc4CCc4ccccc43)n2C)c1C |  | MSK2 |  |
| CCc1nnc(NC(=O)CSc2nnc(-c3ccc(O)cc3)n2C)s1 | GSK3-β; also recorded: GSK3-α |  |  |
| COc1ccc(NCc2nnc(SCC(=O)Nc3cccc(-c4ccccc4)c3)n2C)cc1 | PDGFRR-α and FYN and CHEK2 |  |  |
| CCN(CC)S(=O)(=O)c1ccc(-c2nnc(SCC(=O)N3C(C)CCCC3C)n2CC)cc1 (centres unmarked) | PDGFRR-α and FYN |  |  |
| COC(=O)c1ccccc1NC(=O)CSc1nnc(CNc2ccc(OC)cc2)n1-c1ccc(C)cc1 | PDGFRR-α and AURORA-A and FYN |  |  |
| Cc1cccc(NC(=O)CSc2nnc(-c3ccc(O)cc3)n2-c2ccccc2)c1C | MSK2 |  |  |
| CSCCc1nnc(SCC(O)C(F)(F)F)[nH]1 (centres unmarked) |  | GSK3-α |  |
| O=C(CSc1nnc(-c2ccc(O)cc2)n1CC1CCCO1)Nc1nc2c(s1)CCCC2 (centres unmarked) | GSK3-β; also recorded: AURORA-A |  |  |
| CCCCSc1nnc(-c2ccc(F)cc2)[nH]1 [3-(butylthio)-5-(4-fluorophenyl)-4H-1,2,4-triazole] |  | AURORA-A; also recorded: FLT-3; also recorded: DYRK2 |  |
| Clc1ccc(-c2nnc(SCCN3CCOCC3)[nH]2)cc1Cl [4-(2-(5-(3,4-dichlorophenyl)-4H-1,2,4-triazol-3-ylthio)ethyl)morpholine] |  | AURORA-A; also recorded: GSK3-α; also recorded: GSK3-β |  |
| O=C(CSc1nnc(CCN2CCOCC2)n1-c1ccc(F)cc1)c1ccccc1 | FYN |  |  |
| Cn1c(S)nnc1COc1ccc2ccccc2c1 [4-methyl-5-((naphthalen-2-yloxy)methyl)-4H-1,2,4-triazole-3-thiol] | GSK3-α |  |  |
| CCCCSc1nnc(COc2ccc(Br)cc2)n1CC [3-((4-bromophenoxy)methyl)-5-(butylthio)-4-ethyl-4H-1,2,4-triazole] |  | CDK2-cyclinA; also recorded: AURORA-A |  |
| CCn1c(COc2ccc(OC)cc2)nnc1SCC(=O)O | AKT1 |  |  |
| Cn1c(SCc2ccccc2)nnc1-c1ccncc1 [4-(5-(benzylthio)-4-methyl-4H-1,2,4-triazol-3-yl)pyridine] |  | AURORA-A |  |
| Cc1ccc(CSc2nnc(CSc3nc(C)cc(C)n3)n2Cc2ccco2)cc1 |  | CDK2-cyclinA |  |
| O=C(O)CCSc1nnc(-c2cccnc2)n1-c1ccccc1 [3-(4-phenyl-5-(pyridin-3-yl)-4H-1,2,4-triazol-3-ylthio)propanoic acid] |  | AURORA-A |  |
| COc1ccccc1-c1nnc(SCCSc2nnc(-c3ccccc3OC)n2-c2ccc(C)cc2)n1-c1ccc(C)cc1 [1,2-bis(5-(2-methoxyphenyl)-4-p-tolyl-4H-1,2,4-triazol-3-ylthio)ethane] |  | CDK1 |  |
| CN(C)CCCSc1nnc(-c2ccc(OC(F)(F)F)cc2)[nH]1 |  | c-TAK1; also recorded: AURORA-A; also recorded: CHEK2 |  |
| COc1ccc(-n2c(CNc3ccccc3Cl)nnc2SCC(=O)Nc2ccc([N+](=O)[O-])cc2)cc1 | CHEK2 |  |  |
| Cn1c(Cn2nnc3ccccc32)nnc1SCC(=O)Nc1nccs1 | GSK3-β; also recorded: GSK3-α; also recorded: CDK2-cyclinE |  |  |
| CCn1c(SCC(=O)OC)nnc1-c1ccc([N+](=O)[O-])cc1 [methyl 2-(4-ethyl-5-(4-nitrophenyl)-4H-1,2,4-triazol-3-ylthio)acetate] | PDGFRR-α and FYN |  |  |
